PMC3348654 (The Journal of Neuroscience, 2012)

Tests used:
[1] = C and EC metabolite levels in rat brain tissue after 10 days repeated dosing; assay type: in vivo; details: rats, following repeated dosing with GP or with Mo
[2] = test system: hippocampal slices from Tg2576 mice; assay: Electrophysiological recordings; assay type: cell-based; details: 300 nM, 4–5 h, hippocampal slices from old Tg2576 mice, versus vehicle
[3] = test system: brain slices from wild type mice; assay: Electrophysiological recordings in brain slices from age-matched wild type mice; assay type: cell-based; details: 300 nM
CREB (Ser133) = assay: Phospho-CREB immunoassay in hippocampal slices; assay type: cell-based; details: 300 nM, 5 hours, hippocampal slices from old Tg2576 mice, versus vehicle
[4] = test system: Erk/MAP kinase 1/2 (Thr185/Tyr187); assay: Multiplex phospho-Erk1/2 immunoassay in hippocampal slices; assay type: cell-based; details: 300 nM, 5 hours, hippocampal slices from old Tg2576 mice
MEK1 (Ser222) = assay: Multiplex phospho-MEK immunoassay in hippocampal slices; assay type: cell-based; details: 300 nM, 5 hours, hippocampal slices from old Tg2576 mice
PKA = PKA activity assay and PKA IIa protein content in hippocampal slices; assay type: cell-based; details: 300 nM, 5 hours, hippocampal slices from old Tg2576 mice
CaMKII = assay: Western blot of phospho- and total CaMKII in hippocampal slices; assay type: cell-based; details: 300 nM, 5 hours, hippocampal slices from old Tg2576 mice

| phosphorylation status of Erk1/2 (Thr185/Tyr187) [4] | Compound | free C and EC contents in the brain [1] | basal synaptic transmission in the CA1 region [2] | LTP [3] | basal synaptic transmission [3] | levels of [Ser133]-phosphorylated, active CREB (CREB (Ser133)) | phosphorylation status of MEK (MEK1 (Ser222)) | PKA (PKA activity assay and PKA IIa protein content) (PKA) | level of [Thr286]-phosphorylated, active CaMKII (CaMKII) | level of total CaMKII (CaMKII) |
| --- | --- | --- | --- | --- | --- | --- | --- | --- | --- | --- |
|  | Oc1cc(O)c2c(c1)OC(c1ccc(O)c(O)c1)C(O)C2 (single isomer, unassigned; (+)) [C, (+)-catechin] | trace contents (below levels for quantification) |  |  |  |  |  |  |  |  |
| did not modulate | COc1cc([C@H]2Oc3cc(O)cc(O[C@@H]4O[C@H](C(=O)O)[C@@H](O)[C@H](O)[C@H]4O)c3C[C@H]2O)ccc1O [3’-O-Me-EC-Gluc, 3’-O-methyl-epicatechin-5-O-β-glucuronide] |  | significantly increased | did not have any effect | did not have any effect | significantly increased | did not modulate | nor did it affect | significantly increased | without influencing |
|  | Oc1cc(O)c2c(c1)O[C@H](c1ccc(O)c(O)c1)[C@H](O)C2 [EC, (−)-epicatechin] | trace contents (below levels for quantification) |  |  |  |  |  |  |  |  |
